# Laboratory results as given in US20100168008A1, “METHOD OF USE OF EPIREGULIN PROTEIN AND NUCLEIC ACID ENCODING THE SAME IN INFLAMMATORY CONDITIONS” (PIRAMAL LIFE SCIENCES LIMITED., priority 2006, published 2010).
# Experiments:
# EREG expression in PBMCs = EREG expression in PBMCs after exposure to anti-inflammatory agent, microarray based expression profiling; assay type: cell-based, Human
# Description: Exposure of PBMCs to P979 and Rolipram: Human peripheral blood leukocytes were obtained from normal blood donors by density gradient separation, washed with PBS (phosphate buffered saline), and plated on petri dishes using RPMI medium. Cells were treated for 30 minutes with test compounds at concentrations 0.3, 1.0 and 3.0 μM and with Rolipram at 300 μM as a control as shown in the results section and subsequently activated with bacterial lipopolysaccharide (LPS). After 2 hours, cells were harvested and RNA was prepared.
# Preparation of RNA: RNA was prepared by adding 1 ml of trizol reagent (Sigma) subsequently purified using Qiagen-RNAEasy kit, using the instruction from manufacturer's protocol. Quality and quantity of RNA was measured by spectrometry and gel electrophoresis.
# Gene expression profiling by microarray: A total of 10 μg of RNA was used to generate cRNA, which is subsequently labeled with Cy3 or Cy5 fluorescent dyes. Control and test cRNAs labeled with Cy3 and Cy5 respectively were pooled and hybridized to DNA chip. […] Following image analysis, image intensity for each of the 23, 290 spots were measured for test and control slides.
# Gene expression was expressed as a ratio of the image intensity between test and control slide for a given gene (Table 3). […]
# EREG expression in PBMC = EREG expression in PBMC by real time polymerase chain reaction (RT-PCR); assay type: cell-based, Human; conditions: 10 μM drug
# Description: Exposure of PBMCs to P979 and Rolipram: Human peripheral blood leukocytes were obtained from normal blood donors by density gradient separation, washed with PBS (phosphate buffered saline), and plated on petri dishes using RPMI medium. […] After 2 hours, cells were harvested and RNA was prepared.
# Real Time Polymerase Chain Reaction (RT-PCR): To confirm the data obtained from microarray, we performed RT-PCR using specific primers for epiregulin gene.
# EREG expression in PBMCs after exposure to anti-inflammatory agent was confirmed by real time polymerase chain reaction (RT-PCR). Microarray based gene expression profiling studied large-scale gene expression. RT PCR focused on the gene/genes of interest and expression analysis was carried out under similar experimental conditions.
# The aliquot of RNA samples as used for microarray study was used for RT-PCR analysis. The experiment was carried out using cMaster™ RTplusPCR System kit from Eppendorf using the protocol as provided in the kit. Briefly, cDNA was synthesized using RNA from various sources as shown in the results and subsequently quantified during amplification step by incorporation of Syber green dye into the amplicons.
smiles,measurement,setting,value
COc1ccc(C2CNC(=O)C2)cc1OC1CCCC1 (stereo not drawn) [Rolipram],"Ratio intensity (EREG expression, test vs control slide)","EREG expression in PBMCs; 300 μM drug, 30 minutes, then LPS activation, harvested after 2 hours",1.03
same,expression of epiregulin gene up-regulated (in words),EREG expression in PBMCs; microarray,not
same,Log-fold Change (EREG expression),EREG expression in PBMC,1.2
